# Measurements as given in US7718801B2, “Substituted imidazole derivative” (Banyu Pharmaceutical Co., Ltd., priority 2004, dated 2010).
# Experiments:
# [1] = target: T1, PLK1-T210D (human active type PLK1) (Homo sapiens, UniProt P53350, T210D); assay: Measurement of the inhibitory effect against PLK1-T210D activity ([γ-33P]ATP, CDC25C-derived peptide substrate); assay type: biochemical; conditions: 50 μM ATP, 50 μM substrate peptide, 25° C., 20 minutes
# T1 construct: a baculovirus expressing full-length human PLK1 of which N terminus is fused with GST; GST (glutathione S-transferase) (N); made in house; host or cells: insect cells (baculovirus)
# Experimental: It has been known that 210th codon of human PLK1 which originally codes for threonine can be changed to an active type by altering the site so as to code aspartic acid [Molecular and Cellular Biology (Mol. Cell. Biol.), 17th edition, 3408 (1997)]. In order to obtain a human active type PLK1 protein, cDNA of mutated PLK1 (PLK1-T210D) of which 210th codon codes aspartic acid was prepared, by substituting a base in the 210th codon of human PLK1 cDNA. This PLK1-T210D cDNA was integrated into a baculovirus expression vector in the same manner as in the above, expressed in insect cells, and then was purified.
# For the measurement of the PLK1 and PLK1-T210D activity, used as a substrate was a synthetic peptide (aspartic acid-glutamic acid-leucine-methionine-glutamic acid-alanine-serine-phenylalanine-alanine-aspartic acid-glutamine-aspartic acid-alanine-lysine), where the serine surrounding sequence of the amino acid sequence No. 198 of CDC25C, which have been reported as the site for PLK1 substrate [EMBO Report, 3rd edition, 341 (2002)], is altered.
# The reaction was carried out in accordance with the method of Toyoshima-Morimoto et al. [Nature, Vol. 410, 215-220, (2001)]. The volume of the reaction solution was 21.1 μL and the composition of the reaction buffer was 20 mM of tris-hydrochloric acid buffer (pH 7.4)/10 mM magnesium chloride/0.5 mM dithiothreitol/1 mM EGTA (ethylene glycol-bis(beta-aminoethylether)-N,N,N′,N′,-tetraacetic acid). Thereto, purified PLK 1, 50 μM of the substrate peptide, 50 μM of non-labeled adenosine triphosphate (ATP), and 1 μCi of [γ-33P]-labeled ATP (2000 to 4000 Ci/mmole) were added to react at 25° C. for 20 minutes. Then, 10 μL of 350 mM phosphate buffer was added to the reaction system to terminate the reaction. The resultant solution was spotted onto a multi-screen phosphocellulose filter on a 96-well plate. After the phosphocellulose filter is washed with 75 mM phosphate buffer and then dried, the radioactivity of the substrate was measured with a liquid scintillation counter. The non-labeled ATP and [γ-33P]-labeled ATP was purchased from Amersham Bioscience Corp. and the multi-screen phosphocellulose filter from Millipore Corp., respectively.
# The addition of the compound of the present invention to the reaction system was carried out by adding 1.1 μL of the solution as prepared by preliminarily dissolving in dimethylsulfoxide at a 20-fold concentration of the final concentration. A control was provided by adding 1.1 μL of dimethylsulfoxide to the reaction system.
# [2] = target: T2, full-length human PLK1 (Homo sapiens, UniProt P53350); assay: Measurement of the inhibitory effect against PLK1 activity ([γ-33P]ATP, CDC25C-derived peptide substrate); assay type: biochemical; conditions: 50 μM ATP, 50 μM substrate peptide, 25° C., 20 minutes
# T2 construct: a baculovirus expressing full-length human PLK1 of which N terminus is fused with GST; GST (glutathione S-transferase) (N, cleaved yes); made in house; host or cells: Spodoptera frugiperda Sf9 insect cells (baculovirus)
# Experimental: First, a baculovirus expressing full-length human PLK1 of which N terminus is fused with GST (glutathione S-transferase) was prepared, and then the PLK1 infected into a Spodoptera frugiperda (Sf)9 insect cell was highly expressed as a GST-fused protein. The cells were recovered and suspended in a lysis buffer (50 mM tris-hydrochloric acid buffer (pH 7.4)/150 mM sodium chloride/1 mM EDTA (ethylenediamine tetraacetic acid)/1 mM dithiothreitol/0.1% polyoxyethylene sorbitan monolaurate) to break cells with sonicator, and supernatant was recovered after a centrifugation. The supernatant was reacted on glutathione sepharose beads, and then the beads were washed with a lysis buffer. Thereafter, the beads were reacted in a lysis buffer containing Precision Protease to recover supernatant. […]
# The reaction was carried out in accordance with the method of Toyoshima-Morimoto et al. [Nature, Vol. 410, 215-220, (2001)]. […] After the phosphocellulose filter is washed with 75 mM phosphate buffer and then dried, the radioactivity of the substrate was measured with a liquid scintillation counter. […]
# [3] = test system: HeLaS3 cells; assay: Inhibitory activity against PLK1 at cellular level: ratio of cells arrested at M phase (phospho-histone H3 Ser10, mitotic index); assay type: cell-based; conditions: Homo sapiens, HeLa S3; HeLaS3 cells synchronized at G1/S, 12 hours with compound; concentration inducing 50% of maximal M phase arrest; read-out: Inhibitory effect against cell proliferation
# Experimental: For the measurement of the PLK 1 inhibitory effect of the compound at the cellular level, human uterine cervix cell lines HeLaS3 cells were used. The HeLaS3 cell was obtained from American Type Culture Collection (ATTC), and cultured in a CO2-incubator of saturated steam by using Dulbecco's Modified Eagle's Medium containing 10% fetal calf serum at 37° C. in the presence of 5% CO2.
# It has been reported that PLK 1 plays an important role in various stages of mitotic phase (M-phase) in mammalian cells (Nature Review Molecular Cell Biology, Vol. 5, 429, (2004)). In fact, when the mammalian cells are treated with PLK 1 siRNA to control the expression level, the cell cycle progression is inhibited and thus the cell is arrested at M phase. Also, when examining the phosphorylation level of serine, 10th residue of histone H3, which is thought to be required for a chromosome condensation in M phase, it is observed that the level is enhanced to a high level. Thus, after treating the cell with the compound according to the present invention; the phosphorylation level of histone H3 was examined by an indirect fluorescent antibody technique, the cells arrested at M phase were identified by using the level thereof as an indicator to analyze the ratio of cells arrested at M phase; and then EC50 value of each compound was calculated to evaluate the PLK 1 inhibitory effect at a cellular level.
# First, HeLaS3 cells synchronized at the G1/S phase by a double-thymidine technique were seeded into lysine-treated 96-well plate (Falcon Corp.) at the ratio of 8,000 per one well, and allowed to stand still in the above-mentioned CO2 incubator. […] After terminating the reaction, the reaction solution in wells was removed and replaced with 100 μL of PBS, and then fluorescence images were captured by using InCell Analyzer 1000 (manufactured by GE Amersham) to analyze the ratio of the cells arrested at M phase (Mitotic index) at different view angles. […]
# T1 sequence (P53350 whole entry T210D, the tested form may be a part): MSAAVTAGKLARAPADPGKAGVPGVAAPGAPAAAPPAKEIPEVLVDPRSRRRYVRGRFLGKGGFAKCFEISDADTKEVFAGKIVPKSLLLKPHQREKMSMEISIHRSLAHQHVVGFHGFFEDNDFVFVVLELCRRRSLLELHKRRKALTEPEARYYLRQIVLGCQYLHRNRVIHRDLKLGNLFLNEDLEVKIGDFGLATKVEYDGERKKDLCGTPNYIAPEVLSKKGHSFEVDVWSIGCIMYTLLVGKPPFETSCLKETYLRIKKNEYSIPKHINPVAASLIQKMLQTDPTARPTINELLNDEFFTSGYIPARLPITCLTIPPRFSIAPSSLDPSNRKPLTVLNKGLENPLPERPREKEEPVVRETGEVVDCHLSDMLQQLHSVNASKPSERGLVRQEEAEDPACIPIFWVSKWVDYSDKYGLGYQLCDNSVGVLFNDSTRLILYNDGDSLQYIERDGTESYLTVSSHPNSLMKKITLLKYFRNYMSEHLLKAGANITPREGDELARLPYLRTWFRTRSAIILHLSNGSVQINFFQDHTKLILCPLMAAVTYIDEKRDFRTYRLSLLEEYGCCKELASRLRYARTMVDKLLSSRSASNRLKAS
# T2 sequence (P53350 whole entry, the tested form may be a part): as the sequence (P53350 whole entry T210D, the tested form may be a part) above, with D210T counted along it
Compound,IC50 [1],IC50 [2],EC50 [3]
"Cc1cccn2c(-c3nc(N[C@@H](C)c4ccccc4)ncc3C#N)cnc12 [Example 8, 4-(8-methylimidazo[1,2-a]pyridin-3-yl)-2-{[(1S)-1-phenylethyl]amino}-5-pyrimidinecarbonitrile]",26 nM,43 nM,
"C[C@H](Nc1ncc(Br)c(-c2cnc3c(Cl)cccn23)n1)c1ccccc1 [Example 28, 5-bromo-4-(8-chloroimidazo[1,2-a]pyridin-3-yl)-N-[(1S)-1-phenylethyl]-2-pyrimidinamine]",42 nM,,
"C[C@H](Nc1ncc(C#N)c(-c2cnc3c(C(F)(F)F)cccn23)n1)c1ccccc1 [Example 36, 2-{[(1S)-1-phenylethyl]amino}-4-[8-(trifluoromethyl)imidazo[1,2-a]pyridin-3-yl]-5-pyrimidinecarbonitrile]",16 nM,,310 nM
"Cc1cccn2c(-c3nc(N[C@@H](C)c4ccc(N)cc4)ncc3C#N)cnc12 [Example 112, 2-{[(1S)-1-(4-aminophenyl)ethyl]amino}-4-(8-methylimidazo[1,2-a]pyridin-3-yl)pyrimidine-5-carbonitrile]",47 nM,,340 nM
"COc1cccn2c(-c3nc(N[C@@H](C)c4ccc(N5CCNCC5)cc4)ncc3C#N)cnc12 [Example 158, 4-(8-methoxyimidazo[1,2-a]pyridin-3-yl)-2-{[(1S)-1-(4-piperazin-1-ylphenyl)ethyl]amino}pyrimidine-5-carbonitrile]",41 nM,,180 nM
